In series [1] the test system is HepG2 cells. The note with it: for IC50: read-out: MMP assays IC50 (µM) HepG2.
The test system of series [2] is rat primary hepatocytes.
Series [3] concerns HepG2 cells. The note with it: cited from earlier work.
Series [4] relates to rat primary hepatocytes. Kind of series: MMP assay in rat primary hepatocytes. The following applies: for IC50: read-out: MMP assays IC50 (µM) Rat Hepatocytes.
Where [5] appears, read: read-out: MMP assays IC50 (µM) qHTS-HepG2.
The mark [6] stands for this setting: read-out: MMP assays IC50 (µM), qHTS-HepG2.

Like-named read-outs stand apart in the source and are kept apart here.

As a reminder, the IC50 is the concentration needed to halve the response being measured. Take `CC1(COc2ccc(CC3SC(=O)NC3=O)cc2)CCCCC1` (centres unmarked) [Ciglitizone]: the “MMP assays efficacy (%) HepG2” value with HepG2 cells [1] is -97%. The results for the IC50 with HepG2 cells [1], in the series with HepG2 cells [3] (setting [5]) and with rat primary hepatocytes [4] were 14.1 µM, 8.22 ± 1.6 µM and 9.92 ± 4.25 µM, respectively. Besides, the “MMP assays efficacy (%) Rat Hepatocytes” value with rat primary hepatocytes [2] was -84±44%. Besides, the “MMP assays efficacy (%) qHTS-HepG2” value with HepG2 cells [3] was -106±9%.

On to `Cc1cc(Nc2ccccc2C(=O)O)ccc1Cl`, for which, in the series with HepG2 cells [1], the “MMP assays efficacy (%) HepG2” value was -100%. In addition, the IC50 with HepG2 cells [1] is 35.5 µM; in the series on HepG2 cells [3] (setting [5]) it was 12.8 ± 0.84 µM; with rat primary hepatocytes [4], 22.7 ± 16.2 µM. Further, in the series on rat primary hepatocytes [2], the “MMP assays efficacy (%) Rat Hepatocytes” value is on record as -92±11%. Moreover, the “MMP assays efficacy (%) qHTS-HepG2” value with HepG2 cells [3] was -99±8%.

Take `CC1=Nc2ccc3ccccc3c2C1(C)C` [1,1,2-Trimethyl-1H-benzo[e]indole]: the “MMP assays efficacy (%) HepG2” value in the series with HepG2 cells [1] was -96%. Further, the IC50 with HepG2 cells [1] is 10 µM; in the series with HepG2 cells [3] (setting [5]), 23.4 ± 4.03 µM; in the series on rat primary hepatocytes [4] it was 34.9 ± 8.48 µM. Also, the “MMP assays efficacy (%) Rat Hepatocytes” value in the series on rat primary hepatocytes [2] is -100±23%. For the same molecule, the “MMP assays efficacy (%) qHTS-HepG2” value in the series on HepG2 cells [3] was -76±16%.

Take `CC(=Cc1ccccc1)[N+](=O)[O-]` [(2-Nitro-1-propenyl)benzene]: the “MMP assays IC50 (µM) HepG2” value in the series on HepG2 cells [1] was “inactive”. Also, the “MMP assays efficacy (%) HepG2” value with HepG2 cells [1] was “inactive”. Further, the “MMP assays efficacy (%) Rat Hepatocytes” value with rat primary hepatocytes [2] is on record as -107±47%. For the same molecule, the “MMP assays efficacy (%) qHTS-HepG2” value in the series with HepG2 cells [3] was -105±10%. The IC50 in the series with HepG2 cells [3] (setting [5]) is 38.6 ± 15.3 µM; in the series on rat primary hepatocytes [4] (Rattus norvegicus, Hepatocyte), 25.9 ± 8.35 µM.

Consider `CCCCCCCC/C=C\CCCCCCCC(=O)NCc1ccc(O)c(OC)c1` [Olvanil], for which, in the series on HepG2 cells [1], the “MMP assays IC50 (µM) HepG2” value is “inactive” and the “MMP assays efficacy (%) HepG2” value was “inactive”. In the series with rat primary hepatocytes [2], the “MMP assays efficacy (%) Rat Hepatocytes” value is “inactive”. Moreover, the “MMP assays efficacy (%) qHTS-HepG2” value with HepG2 cells [3] is given as -74±8%. The IC50 with HepG2 cells [3] (setting [6]) was 13.5 ± 1.9 µM. Further, in the series with rat primary hepatocytes [4], the “MMP assays IC50 (µM) Rat Hepatocytes” value was “inactive”.

`C=C1CC[C@H](O)C/C1=C/C=C1\CCC[C@]2(C)[C@@H]([C@H](C)CCCC(C)C)CC[C@@H]12` [Vitamin D3]: in the series on HepG2 cells [1], the “MMP assays IC50 (µM) HepG2” value is “inactive” and the “MMP assays efficacy (%) HepG2” value was “inactive”. Further, the “MMP assays efficacy (%) Rat Hepatocytes” value in the series with rat primary hepatocytes [2] is “inactive”. In the series on HepG2 cells [3], the “MMP assays IC50 (µM) qHTS-HepG2” value is “inactive” and the “MMP assays efficacy (%) qHTS-HepG2” value is “inactive”. The “MMP assays IC50 (µM) Rat Hepatocytes” value with rat primary hepatocytes [4] was “inactive”.

As for `CC(=O)OCC(=O)[C@@]12OC(C)(C)O[C@@H]1C[C@H]1[C@@H]3C[C@H](F)C4=CC(=O)C=C[C@]4(C)[C@@]3(F)[C@@H](O)C[C@@]12C` [Fluocinonide], in the series on HepG2 cells [1], the “MMP assays IC50 (µM) HepG2” value is “inactive” and the “MMP assays efficacy (%) HepG2” value is “inactive”. Besides, the “MMP assays efficacy (%) Rat Hepatocytes” value with rat primary hepatocytes [2] was “inactive”. In the series with HepG2 cells [3], the “MMP assays IC50 (µM) qHTS-HepG2” value is “inactive” and the “MMP assays efficacy (%) qHTS-HepG2” value is “inactive”. Also, the “MMP assays IC50 (µM) Rat Hepatocytes” value in the series with rat primary hepatocytes [4] was “inactive”.

As for `CCCCCCCC[P+](CCCCCCCC)(CCCCCCCC)CCCCCCCC.[Br-]` [Tetraoctylphosphonium bromide], the “MMP assays efficacy (%) HepG2” value in the series on HepG2 cells [1] is -105%. Moreover, the IC50 with HepG2 cells [1] is 0.32 µM; in the series on HepG2 cells [3] (setting [6]) it was 0.18 ± 0.12 µM; in the series with rat primary hepatocytes [4], 6.82 ± 2.23 µM. The “MMP assays efficacy (%) Rat Hepatocytes” value with rat primary hepatocytes [2] was -90±21%. In addition, the “MMP assays efficacy (%) qHTS-HepG2” value in the series on HepG2 cells [3] was -91±6%.

As for `Cl.Cl.Nc1ccc(-c2ccc(N)cc2)cc1` [Benzidine dihydrochloride], in the series with HepG2 cells [1], the “MMP assays efficacy (%) HepG2” value was -67% and the IC50 is 17.7 µM. For the same molecule, the “MMP assays efficacy (%) Rat Hepatocytes” value with rat primary hepatocytes [2] was “inactive”. Also, in the series with HepG2 cells [3], the “MMP assays IC50 (µM) qHTS-HepG2” value was “inactive” and the “MMP assays efficacy (%) qHTS-HepG2” value was “inactive”. Moreover, the “MMP assays IC50 (µM) Rat Hepatocytes” value in the series on rat primary hepatocytes [4] was “inactive”.

With `COc1ccc(N)cc1N.O=S(=O)(O)O` [2,4-Diaminoanisole sulfate], in the series with HepG2 cells [1], the “MMP assays efficacy (%) HepG2” value is -125%. The IC50 in the series with HepG2 cells [1] is 7.94 µM; with HepG2 cells [3] (setting [5]), 2.51 ± 1.16 µM; in the series on rat primary hepatocytes [4], 19.6 ± 19.3 µM. The “MMP assays efficacy (%) Rat Hepatocytes” value in the series with rat primary hepatocytes [2] is -58±24%. In the series on HepG2 cells [3], the “MMP assays efficacy (%) qHTS-HepG2” value was -95±6%.

With `Cl.Cl.NNCc1ccccc1` [Benzylhydrazine dihydrochloride], the “MMP assays efficacy (%) HepG2” value with HepG2 cells [1] was -88%. The IC50 in the series with HepG2 cells [1] is 19.9 µM; in the series with HepG2 cells [3] (setting [5]), 27.8 ± 3.21 µM. The “MMP assays efficacy (%) Rat Hepatocytes” value in the series with rat primary hepatocytes [2] was “inactive”. Moreover, in the series with HepG2 cells [3], the “MMP assays efficacy (%) qHTS-HepG2” value is given as -106±12%. Moreover, the “MMP assays IC50 (µM) Rat Hepatocytes” value in the series on rat primary hepatocytes [4] is “inactive”.

With `O=C1[C@H](CC[C@H](O)c2ccc(F)cc2)[C@@H](c2ccc(O)cc2)N1c1ccc(F)cc1`, the “MMP assays efficacy (%) HepG2” value in the series with HepG2 cells [1] is -112%. For the same molecule, the “MMP assays efficacy (%) Rat Hepatocytes” value in the series with rat primary hepatocytes [2] is on record as -52±2%. Further, the “MMP assays efficacy (%) qHTS-HepG2” value in the series with HepG2 cells [3] is -81±11%. Moreover, the figures for the IC50 with HepG2 cells [3] (setting [5]) and in the series on rat primary hepatocytes [4] were 25.6 ± 3.54 µM and 16.6 ± 20.1 µM, respectively.

For the molecule `O=[N+]([O-])c1ccc(F)c([N+](=O)[O-])c1` [1-Fluoro-2,4-dinitrobenzene], the “MMP assays efficacy (%) HepG2” value in the series with HepG2 cells [1] was -103%. For the same molecule, the IC50 is 5.48 µM in the series on HepG2 cells [1], 3.71 ± 0.6 µM in the series on HepG2 cells [3] (setting [5]) and 8.3 ± 5.67 µM in the series on rat primary hepatocytes [4]. Moreover, in the series on rat primary hepatocytes [2], the “MMP assays efficacy (%) Rat Hepatocytes” value is -68±38%. The “MMP assays efficacy (%) qHTS-HepG2” value in the series with HepG2 cells [3] was -104±8%.

Source of the values: publication PMC6112376, “Comprehensive Analyses and Prioritization of Tox21 10K Chemicals Affecting Mitochondrial Function by in-Depth Mechanistic Studies” (Environmental Health Perspectives, 2018).
